± gives the expanded uncertainty stated by the source.
Assay: refractive index (other wavelength) (dimensionless); xn = mol fraction of the nth substance listed
Conditions: 101 kPa, Liquid, Standard Abbe refractometry

CC(C)Cc1ccccc1 [(2-methylpropyl)benzene] + c1ccc2c(c1)CCCC2
refractive index
Conditions | x2 = 0.1014 | x2 = 0.2024 | x2 = 0.3032 | x2 = 0.4036 | x2 = 0.5038 | x2 = 0.6036 | x2 = 0.7032 | x2 = 0.8024 | x2 = 0.9014
293.15 K, Wavelength=436.1 nm | 1.50977 ± 0.00078 | 1.51503 ± 0.0008 | 1.52078 ± 0.00076 | 1.52612 ± 0.0008 | 1.53208 ± 0.00078 | 1.53797 ± 0.00077 | 1.54392 ± 0.00078 | 1.55007 ± 0.00077 | 1.55611 ± 0.00078
293.15 K, Wavelength=513.9 nm | 1.49809 ± 0.001 | 1.50316 ± 0.00091 | 1.5087 ± 0.0009 | 1.51409 ± 0.00089 | 1.51959 ± 0.00092 | 1.52525 ± 0.0009 | 1.53097 ± 0.00091 | 1.5369 ± 0.00091 | 1.54273 ± 0.001
293.15 K, Wavelength=589.3 nm | 1.49141 ± 0.00079 | 1.49657 ± 0.00077 | 1.50199 ± 0.00078 | 1.50701 ± 0.00084 | 1.51266 ± 0.00079 | 1.51821 ± 0.00078 | 1.52382 ± 0.00078 | 1.52961 ± 0.00078 | 1.53531 ± 0.00082
293.15 K, Wavelength=633.2 nm | 1.4889 ± 0.00076 | 1.49381 ± 0.00076 | 1.49922 ± 0.00077 | 1.50445 ± 0.00077 | 1.50978 ± 0.0008 | 1.51528 ± 0.00074 | 1.52085 ± 0.00077 | 1.5266 ± 0.00075 | 1.53226 ± 0.0008
293.15 K, Wavelength=657.2 nm | 1.48749 ± 0.00074 | 1.49254 ± 0.00076 | 1.49852 ± 0.00074 | 1.50384 ± 0.00078 | 1.50967 ± 0.00071 | 1.51394 ± 0.00076 | 1.52005 ± 0.00069 | 1.52522 ± 0.00076 | 1.53141 ± 0.00069
298.15 K, Wavelength=436.1 nm | 1.50717 ± 0.00078 | 1.51248 ± 0.00078 | 1.51824 ± 0.00078 | 1.52362 ± 0.00078 | 1.52954 ± 0.00079 | 1.53551 ± 0.00077 | 1.54144 ± 0.00078 | 1.54758 ± 0.00078 | 1.55354 ± 0.00078
298.15 K, Wavelength=513.9 nm | 1.49546 ± 0.00076 | 1.50075 ± 0.00076 | 1.50623 ± 0.00076 | 1.51165 ± 0.00077 | 1.51711 ± 0.00077 | 1.52288 ± 0.00076 | 1.5286 ± 0.00076 | 1.53447 ± 0.00076 | 1.54022 ± 0.00076
298.15 K, Wavelength=589.3 nm | 1.48927 ± 0.00074 | 1.49432 ± 0.00076 | 1.49956 ± 0.00075 | 1.50446 ± 0.00075 | 1.51023 ± 0.00075 | 1.51588 ± 0.00074 | 1.52148 ± 0.00075 | 1.52722 ± 0.00075 | 1.53287 ± 0.00075
298.15 K, Wavelength=633.2 nm | 1.48633 ± 0.00075 | 1.49149 ± 0.00075 | 1.49681 ± 0.00075 | 1.50206 ± 0.00077 | 1.50737 ± 0.00075 | 1.51298 ± 0.00075 | 1.51853 ± 0.00075 | 1.52424 ± 0.00074 | 1.52981 ± 0.00074
298.15 K, Wavelength=657.2 nm | 1.48512 ± 0.00074 | 1.49029 ± 0.00073 | 1.49594 ± 0.00077 | 1.50135 ± 0.00076 | 1.50706 ± 0.00076 | 1.51205 ± 0.0007 | 1.51776 ± 0.00074 | 1.52302 ± 0.00074 | 1.52941 ± 0.00074
303.15 K, Wavelength=436.1 nm | 1.50468 ± 0.00078 | 1.50986 ± 0.00076 | 1.51569 ± 0.00079 | 1.52094 ± 0.00076 | 1.52674 ± 0.0008 | 1.53306 ± 0.00078 | 1.53885 ± 0.00078 | 1.54503 ± 0.00078 | 1.55109 ± 0.00079
303.15 K, Wavelength=513.9 nm | 1.49315 ± 0.00076 | 1.49828 ± 0.00075 | 1.50376 ± 0.00078 | 1.50899 ± 0.00076 | 1.5146 ± 0.00076 | 1.52033 ± 0.00078 | 1.52606 ± 0.00076 | 1.532 ± 0.00076 | 1.53785 ± 0.00078
303.15 K, Wavelength=589.3 nm | 1.48673 ± 0.00076 | 1.49163 ± 0.00075 | 1.49715 ± 0.00076 | 1.5021 ± 0.00075 | 1.50776 ± 0.00077 | 1.51352 ± 0.00075 | 1.51899 ± 0.00075 | 1.52478 ± 0.00075 | 1.53052 ± 0.00075
303.15 K, Wavelength=633.2 nm | 1.48406 ± 0.00075 | 1.48893 ± 0.00075 | 1.49439 ± 0.00076 | 1.49932 ± 0.00076 | 1.50493 ± 0.00077 | 1.51036 ± 0.00075 | 1.51604 ± 0.00075 | 1.52181 ± 0.00075 | 1.52748 ± 0.00076
303.15 K, Wavelength=657.2 nm | 1.48275 ± 0.00074 | 1.48792 ± 0.00075 | 1.49332 ± 0.00076 | 1.49885 ± 0.00073 | 1.50461 ± 0.00074 | 1.50983 ± 0.00073 | 1.51528 ± 0.00076 | 1.52043 ± 0.00074 | 1.52666 ± 0.00075

— the NIST ThermoML archive (doi:10.1021/acs.jced.5b00251)
